From patent US4552879A, “Benzoheterocyclic compounds and pharmaceutical composition thereof” (Otsuka Pharmaceutical Co., Ltd., priority 1980, dated 1985)
≈ marks a conversion by molar mass, not a printed value. Like-named read-outs stand apart in the source and are kept apart here.

Tests used:
Experiment in all cases: Minimum inhibitory concentration, serial dilution method on agar plate
Type in all cases: cell-based
[1] = test system: Salmonella typhi 0-901 (NCTC 8393); details: Salmonella enterica
[2] = test system: Klebsiella pneumoniae
[3] = test system: Pseudomonas aeruginosa E-2; details: for MIC: Pseudomonas aeruginosa
[4] = test system: Pseudomonas aeruginosa ATCC 10145; details: for MIC: Pseudomonas aeruginosa
[5] = test system: Pseudomonas putida 12996
[6] = test system: Staphylococcus aureus FDA 209 P; details: for MIC: Staphylococcus aureus
[7] = test system: Proteus rettgeri NIH 96; details: Providencia rettgeri
[8] = test system: Serratia marcescens IFO 12648
[9] = test system: Streptococcus pyogenes IID S-23; details: for MIC: Streptococcus pyogenes
[10] = test system: Escherichia Coli NIHJ JC-2 (IFO 12734)
[11] = test system: Shigella sonnei EW 33
Protocol: The antimicrobial activity of the following test compounds on various test organisms listed below was determined by the serial dilution method on agar plate (Heart Infusion agar produced by Difco Co.) (see CHEMOTHERAPY 22, pp. 1126-1128 (1974)), and the minimum inhibitory concentrations (mcg/ml) obtained are shown in Tables 1, 2 and 3 below.
A sample of each test organism was prepared so that the population of the organism was 1×10^8 cells/ml (O.D. 660 mμ=0.07 to 0.16) and 1×10^6 cells/ml (which was obtained by diluting 100 fold the above 1×10^8 cells/ml preparation).

[12] = test system: Pseudomonas aeruginosa NCTC 10490
[13] = read-out: Minimum Inhibitory Concentration, 1×10^6 cells/ml
[14] = read-out: Minimum Inhibitory Concentration, 1×10^8 cells/ml
[15] = E2, 1×10^6 cells/ml, read-out: Minimum Inhibitory Concentration
[16] = E2, 1×10^8 cells/ml, read-out: Minimum Inhibitory Concentration
[17] = ATCC10145, 1×10^6 cells/ml, read-out: Minimum Inhibitory Concentration
[18] = ATCC10145, 1×10^8 cells/ml, read-out: Minimum Inhibitory Concentration
[19] = Pseudomonas putida, 12996, 1×10^6 cells/ml, read-out: Minimum Inhibitory Concentration
[20] = Pseudomonas putida, 12996, 1×10^8 cells/ml, read-out: Minimum Inhibitory Concentration
[21] = FDA209, 1×10^6 cells/ml, read-out: Minimum Inhibitory Concentration
[22] = FDA209, 1×10^8 cells/ml, read-out: Minimum Inhibitory Concentration
[23] = NIH96, 1×10^6 cells/ml, read-out: Minimum Inhibitory Concentration
[24] = NIH96, read-out: Minimum Inhibitory Concentration, 1×10^8 cells/ml
[25] = IFO12648, 1×10^6 cells/ml, read-out: Minimum Inhibitory Concentration
[26] = IFO12648, 1×10^8 cells/ml, read-out: Minimum Inhibitory Concentration
[27] = IIDS23, 1×10^6 cells/ml, read-out: Minimum Inhibitory Concentration
[28] = IIDS23, 1×10^8 cells/ml, read-out: Minimum Inhibitory Concentration
[29] = 1×10^6 cells/ml, read-out: Minimum Inhibitory Concentration
[30] = 1×10^8 cells/ml, read-out: Minimum Inhibitory Concentration
[31] = NIH96, read-out: Minimum Inhibitory Concentration, 1×10^6 cells/ml
[32] = NIH96, 1×10^8 cells/ml, read-out: Minimum Inhibitory Concentration

| Compound | MIC [1, 13] [µg/mL] | MIC [1, 14] [µg/mL] | MIC [2, 13] [µg/mL] | MIC [2, 14] [µg/mL] | MIC [3, 15] [µg/mL] | MIC [3, 16] [µg/mL] | MIC [4, 17] [µg/mL] | MIC [4, 18] [µg/mL] | MIC [5, 19] [µg/mL] | MIC [5, 20] [µg/mL] | MIC [6, 21] [µg/mL] | MIC [6, 22] [µg/mL] | MIC [7, 23] [µg/mL] | MIC [7, 24] [µg/mL] | MIC [8, 25] [µg/mL] | MIC [8, 26] [µg/mL] | MIC [9, 27] [µg/mL] | MIC [9, 28] [µg/mL] | MIC ([11]; EW33, 1×10^6 cells/ml) [µg/mL] | MIC ([11]; EW33, 1×10^8 cells/ml) [µg/mL] | other results |
| --- | --- | --- | --- | --- | --- | --- | --- | --- | --- | --- | --- | --- | --- | --- | --- | --- | --- | --- | --- | --- | --- |
| CC1CCc2c(N3CCOCC3)c(F)cc3c(=O)c(C(=O)O)cn1c23 (stereo not drawn) [Compound 2, 9-Fluoro-8-morpholino-5-methyl-6,7-dihydro-1-oxo-1H,5H-benzo[ij]quinolizine-2-carboxylic acid] | 0.05 (≈ 0.144 µM) | 0.1 (≈ 0.289 µM) | 0.2 (≈ 0.577 µM) | 0.2 (≈ 0.577 µM) | 3.13 (≈ 9.04 µM) | 6.25 (≈ 18 µM) | 3.13 (≈ 9.04 µM) | 3.13 (≈ 9.04 µM) | 3.13 (≈ 9.04 µM) | 6.25 (≈ 18 µM) | 0.025 (≈ 0.0722 µM) | 0.05 (≈ 0.144 µM) | 0.05 (≈ 0.144 µM) | 0.1 (≈ 0.289 µM) | 0.39 (≈ 1.13 µM) | 0.78 (≈ 2.25 µM) | 0.78 (≈ 2.25 µM) | 0.78 (≈ 2.25 µM) | 0.1 (≈ 0.289 µM) | 0.1 (≈ 0.289 µM) | MIC [10, 13]: 0.1 µg/mL (≈ 0.289 µM); MIC [10, 14]: 0.2 µg/mL (≈ 0.577 µM) |
| CC(=O)OC1CCN(c2c(F)cc3c(=O)c(C(=O)O)cn4c3c2CCC4C)CC1 (stereo not drawn) [Compound 3, 9-Fluoro-8-(4-acetyloxy-1-piperidyl)-5-methyl-6,7-dihydro-1-oxo-1H,5H-benzo[ij]quinolizine-2-carboxylic acid] | 0.1 (≈ 0.248 µM) | 0.1 (≈ 0.248 µM) |  |  | 6.25 (≈ 15.5 µM) | 6.25 (≈ 15.5 µM) | 3.13 (≈ 7.78 µM) | 6.25 (≈ 15.5 µM) | 6.25 (≈ 15.5 µM) | 6.25 (≈ 15.5 µM) | 0.05 (≈ 0.124 µM) | 0.05 (≈ 0.124 µM) |  | 0.2 (≈ 0.497 µM) | 1.56 (≈ 3.88 µM) | 3.13 (≈ 7.78 µM) | 0.78 (≈ 1.94 µM) | 0.78 (≈ 1.94 µM) | 0.2 (≈ 0.497 µM) | 0.2 (≈ 0.497 µM) | MIC [2, 29]: 0.39 µg/mL (≈ 0.969 µM); MIC [2, 30]: 0.39 µg/mL (≈ 0.969 µM); MIC [7, 31]: 0.2 µg/mL (≈ 0.497 µM); MIC [10, 29]: 0.39 µg/mL (≈ 0.969 µM); MIC [10, 30]: 0.39 µg/mL (≈ 0.969 µM) |
| CC1CCc2c(N3CCCCC3)c(F)cc3c(=O)c(C(=O)O)cn1c23 (stereo not drawn) [Compound 4, 9-Fluoro-8-(1-piperidyl)-5-methyl-6,7-dihydro-1-oxo-1H,5H-benzo[ij]quinolizine-2-carboxylic acid] | 0.39 (≈ 1.13 µM) | 0.39 (≈ 1.13 µM) |  |  | 12.5 (≈ 36.3 µM) | 25 (≈ 72.6 µM) | 12.5 (≈ 36.3 µM) | 12.5 (≈ 36.3 µM) | 25 (≈ 72.6 µM) | 25 (≈ 72.6 µM) | 0.05 (≈ 0.145 µM) | 0.05 (≈ 0.145 µM) | 1.56 (≈ 4.53 µM) |  | 6.25 (≈ 18.1 µM) | 12.5 (≈ 36.3 µM) | 0.78 (≈ 2.26 µM) | 1.56 (≈ 4.53 µM) | 0.78 (≈ 2.26 µM) | 0.78 (≈ 2.26 µM) | MIC [2, 29]: 1.56 µg/mL (≈ 4.53 µM); MIC [2, 30]: 1.56 µg/mL (≈ 4.53 µM); MIC [7, 32]: 1.56 µg/mL (≈ 4.53 µM); MIC [10, 29]: 1.56 µg/mL (≈ 4.53 µM); MIC [10, 30]: 1.56 µg/mL (≈ 4.53 µM) |
| CC1CCc2c(N3CCC(N(C)C)CC3)c(F)cc3c(=O)c(C(=O)O)cn1c23 (stereo not drawn) [Compound 5, 9-Fluoro-8-(4-dimethylamino-1-piperidyl)-5-methyl-6,7-dihydro-1-oxo-1H,5H-benzo[ij]quinolizine-2-carboxylic acid] | 0.2 (≈ 0.516 µM) | 0.2 (≈ 0.516 µM) | 0.1 (≈ 0.258 µM) | 0.2 (≈ 0.516 µM) | 6.25 (≈ 16.1 µM) | 6.25 (≈ 16.1 µM) | 3.13 (≈ 8.08 µM) | 6.25 (≈ 16.1 µM) | 6.25 (≈ 16.1 µM) | 6.25 (≈ 16.1 µM) | 0.05 (≈ 0.129 µM) | 0.05 (≈ 0.129 µM) |  |  | 0.78 (≈ 2.01 µM) | 1.56 (≈ 4.03 µM) | 0.39 (≈ 1.01 µM) | 0.78 (≈ 2.01 µM) | 0.2 (≈ 0.516 µM) | 0.2 (≈ 0.516 µM) | MIC [7, 32]: 0.39 µg/mL (≈ 1.01 µM); MIC [7, 31]: 0.2 µg/mL (≈ 0.516 µM); MIC [10, 13]: 0.2 µg/mL (≈ 0.516 µM); MIC [10, 14]: 0.2 µg/mL (≈ 0.516 µM) |
| CC1Cc2c(N3CCCC3)c(F)cc3c(=O)c(C(=O)O)cn1c23 (stereo not drawn) [Compound 6, 9-(1-Pyrrolidinyl)-8-fluoro-2-methyl-1,2-dihydro-6-oxo-pyrrolo[3,2,1-ij]quinoline-5-carboxylic acid] | 0.1 (≈ 0.316 µM) | 0.1 (≈ 0.316 µM) |  |  | 1.56 (≈ 4.93 µM) | 1.56 (≈ 4.93 µM) | 1.56 (≈ 4.93 µM) | 1.56 (≈ 4.93 µM) |  |  | 0.024 (≈ 0.0759 µM) | 0.024 (≈ 0.0759 µM) | 0.05 (≈ 0.158 µM) |  | 0.39 (≈ 1.23 µM) | 0.78 (≈ 2.47 µM) | 0.78 (≈ 2.47 µM) | 0.78 (≈ 2.47 µM) | 0.024 (≈ 0.0759 µM) | 0.05 (≈ 0.158 µM) | MIC [2, 29]: 0.2 µg/mL (≈ 0.632 µM); MIC [2, 30]: 0.2 µg/mL (≈ 0.632 µM); MIC [7, 32]: 0.1 µg/mL (≈ 0.316 µM); Minimum Inhibitory Concentration ([12]; 1×10^6 cells/ml): 1.56 µg/mL; MIC ([12]; Pseudomonas aeruginosa, NCTC10490, 1×10^8 cells/ml): 1.56 µg/mL (≈ 4.93 µM); MIC [10, 29]: 0.2 µg/mL (≈ 0.632 µM); MIC [10, 30]: 0.39 µg/mL (≈ 1.23 µM) |
| CCn1cc(C(=O)O)c(=O)c2ccc(C)nc21 [Compound 9, 1-Ethyl-1,4-dihydro-7-methyl-4-oxo-1,8-naphthyridine-3-carboxylic acid, reference compound] | 3.13 (≈ 13.5 µM) | 3.13 (≈ 13.5 µM) | 1.56 (≈ 6.72 µM) | 1.56 (≈ 6.72 µM) |  |  |  |  |  |  |  |  |  | 1.56 (≈ 6.72 µM) |  |  |  |  | 3.13 (≈ 13.5 µM) | 3.13 (≈ 13.5 µM) | Minimum Inhibitory Concentration ([3]; 1×10^6 cells/ml): > 100 µg/mL; MIC ([3]; E2, read-out: Minimum Inhibitory Concentration): > 100 µg/mL; Minimum Inhibitory Concentration ([4]; 1×10^6 cells/ml): > 100 µg/mL; MIC ([4]; ATCC10145, read-out: Minimum Inhibitory Concentration): > 100 µg/mL; Minimum Inhibitory Concentration ([5]; 1×10^6 cells/ml): > 100 µg/mL; MIC ([5]; Pseudomonas putida, 12996, read-out: Minimum Inhibitory Concentration): > 100 µg/mL; Minimum Inhibitory Concentration ([6]; 1×10^6 cells/ml): 50 µg/mL; MIC ([6]; FDA209, read-out: Minimum Inhibitory Concentration): 50 µg/mL (≈ 215 µM); MIC [7, 31]: 1.56 µg/mL (≈ 6.72 µM); MIC ([8]; IFO12648, read-out: Minimum Inhibitory Concentration, 1×10^6 cells/ml): 3.13 µg/mL (≈ 13.5 µM); MIC ([8]; IFO12648, read-out: Minimum Inhibitory Concentration, 1×10^8 cells/ml): 3.13 µg/mL (≈ 13.5 µM); Minimum Inhibitory Concentration ([9]; 1×10^6 cells/ml): > 100 µg/mL; MIC ([9]; IIDS23, read-out: Minimum Inhibitory Concentration): > 100 µg/mL; MIC [10, 13]: 3.13 µg/mL (≈ 13.5 µM); MIC [10, 14]: 3.13 µg/mL (≈ 13.5 µM) |
